From patent US20100310544A1, “COMPOSITION COMPRISING CALCIUM IONS AND AT LEAST ONE PROTEOLYTIC ENZYME FOR USE IN THE IN VITRO AND IN VIVO REGENERATION OF CUTANEOUS AND CONNECTIVE TISSUES” (MEDEVICE S.P.A., priority 2007, published 2010)

System: cutis and subcutis
Experiment: In vivo clinical studies II, Q-BASE-CREAM, regeneration and repairing of cutis and subcutis
Parameters: species or system human
Conditions: Case 2, surgical suture dehiscence; before Q-BASE-CREAM
Experimental: A clinical study was performed, which was designed to assess the therapeutic effectiveness of the product designated as Q-BASE-CREAM in the regeneration and repairing of cutis and subcutis.
During the period comprised from March to May 2007, a mixed group of volunteers consisting of human (two women and one person) and veterinary (two dogs) patients were included in the clinical study.

## povidone-iodine
  change of the lesion after 7 days of previous local therapy: no changes in the lesion occurred
